Results from Sander's compilation of Henry's law constants.
One block for each molecule: values may come before it.

Key:
[1] = Henry solubility constant Hcp at 298.15 K (mol/(m3 Pa))
[2] = Henry solubility constant Hcp at 310 K (mol/(m3 Pa))
[3] = Henry solubility constant Hcp at 296 K (mol/(m3 Pa))
[4] = Henry solubility constant Hcp at 293 K (mol/(m3 Pa))
[5] = reference: Smith et al. (1981b)
[6] = reference: Stoelting and Longshore (1972)
[7] = reference: Power and Stegall (1970)
[8] = reference: Nicholson et al. (1984)
[9] = reference: Ruiz-Bevia and Fernandez-Torres (2010)
[10] = reference: Warner et al. (1980)
[11] = reference: Fendinger et al. (1989)
[12] = reference: Järnberg and Johanson (1995)

Henry solubility constant Hcp [1, 5]: 0.00055
Henry solubility constant Hcp at 310 K ([2]; reference: Munson et al. (1964)): 0.00033
Henry solubility constant Hcp at 310 K [2, 6]: 0.00032
Structure (SMILES): C=COCC(F)(F)F [(2,2,2-trifluoroethoxy)-ethene]

Henry solubility constant Hcp [1, 5]: 0.0029
Henry solubility constant Hcp at 310 K ([2]; reference: Lerman et al. (1983)): 0.0017
Henry solubility constant Hcp at 310 K [2, 6]: 0.0018
Structure (SMILES): COC(F)(F)C(Cl)Cl [2,2-dichloro-1,1-difluoro-1-methoxyethane]

Structure (SMILES): [C-]#[O+] [carbon monoxide]
Henry solubility constant Hcp ([1]; reference: Bunsen (1855a)): 9.5e-06
Henry solubility constant Hcp ([1]; reference: Meadows and Spedding (1974)): 7.9e-05
Henry solubility constant Hcp ([1]; reference: Rettich et al. (1982)): 9.7e-06
Henry solubility constant Hcp ([1]; reference: Schmidt (1979)): 7e-06
Henry solubility constant Hcp ([1]; reference: Winkler (1901)): 9.4e-06
Henry solubility constant Hcp at 310 K [2, 7]: 8.3e-06

Structure (SMILES): BrC(Br)Br [tribromomethane]
Henry solubility constant Hcp ([1]; reference: Khalfaoui and Newsham (1994a)): 0.0085
Henry solubility constant Hcp ([1]; reference: Munz and Roberts (1987)): 0.018
Henry solubility constant Hcp [1, 8]: 0.016
Henry solubility constant Hcp [1, 9]: 0.02
Henry solubility constant Hcp [1, 10]: 0.019
Henry solubility constant Hcp at 310 K ([2]; reference: Zhang et al. (2002)): 0.0096

Structure (SMILES): Cc1ccc(C)cc1 [1,4-dimethylbenzene]
Henry solubility constant Hcp ([1]; reference: Bissonette et al. (1990)): 0.0012
Henry solubility constant Hcp ([1]; reference: Bobadilla et al. (2003)): 0.002
Henry solubility constant Hcp ([1]; reference: Li et al. (2008)): 0.0014
Henry solubility constant Hcp ([1]; reference: Lin and Chou (2006)): 0.0016
Henry solubility constant Hcp ([1]; reference: Park et al. (1997)): 0.00098
Henry solubility constant Hcp ([1]; reference: Wasik and Tsang (1970)): 0.0023
Henry solubility constant Hcp at 310 K ([2]; reference: McIntosh and Heffron (2000)): 0.00067

Structure (SMILES): O=C=O [carbon dioxide]
Henry solubility constant Hcp ([1]; reference: Bohr (1899)): 0.00034
Henry solubility constant Hcp ([1]; reference: Bunsen (1855a)): 0.00034
Henry solubility constant Hcp ([1]; reference: Geffcken (1904)): 0.00033
Henry solubility constant Hcp ([1]; reference: Kunerth (1922)): 0.00033
Henry solubility constant Hcp ([1]; reference: Morrison and Billett (1952)): 0.00033
Henry solubility constant Hcp ([1]; reference: Murray and Riley (1971)): 0.00033
Henry solubility constant Hcp ([1]; reference: Orcutt and Seevers (1937a)): 0.00033
Henry solubility constant Hcp ([1]; reference: Zheng et al. (1997)): 0.00034
Henry solubility constant Hcp at 310 K [2, 7]: 0.00024

Structure (SMILES): ClC1=C(Cl)[C@]2(Cl)C3C(Cl)C(Cl)CC3[C@@]1(Cl)C2(Cl)Cl (some centres undefined) [chlordane]
Henry solubility constant Hcp [1, 11]: 0.12
Henry solubility constant Hcp [1, 10]: 0.21
Henry solubility constant Hcp at 296 K [3, 11]: 0.18

Structure (SMILES): ClC(Br)Br [dibromochloromethane]
Henry solubility constant Hcp ([1]; reference: Ervin et al. (1980)): 0.0085
Henry solubility constant Hcp [1, 8]: 0.0086
Henry solubility constant Hcp [1, 9]: 0.011
Henry solubility constant Hcp [1, 10]: 0.013
Henry solubility constant Hcp at 310 K ([2]; reference: Zhang et al. (2002)): 0.0046

Structure (SMILES): Cc1cc(C)cc(C)c1 [1,3,5-trimethylbenzene]
Henry solubility constant Hcp ([1]; reference: Sanemasa et al. (1981)): 0.0011
Henry solubility constant Hcp at 310 K [2, 12]: 0.00048

Structure (SMILES): CCOCC [diethyl ether]
Henry solubility constant Hcp ([1]; reference: Bachofen and Farhi (1971)): 0.013
Henry solubility constant Hcp ([1]; reference: Nielsen et al. (1994)): 0.011
Henry solubility constant Hcp ([1]; reference: Ondo and Dohnal (2007)): 0.01
Henry solubility constant Hcp ([1]; reference: Signer et al. (1969)): 0.0078
Henry solubility constant Hcp at 310 K ([2]; reference: Brody et al. (1971)): 0.0063
Henry solubility constant Hcp at 310 K ([2]; reference: Eger et al. (1963)): 0.0051
Henry solubility constant Hcp at 293 K ([4]; reference: Yu (1992)): 0.0033

Structure (SMILES): ClC1C(Cl)C(Cl)C(Cl)C(Cl)C1Cl (centres undefined) [γ-1,2,3,4,5,6-hexachlorocyclohexane]
Henry solubility constant Hcp ([1]; reference: Kucklick et al. (1991)): 2.8
Henry solubility constant Hcp ([1]; reference: Sahsuvar et al. (2003)): 4.3
Henry solubility constant Hcp ([1]; reference: Xie et al. (2004)): 6
Henry solubility constant Hcp at 296 K ([3]; reference: Fendinger and Glotfelty (1988)): 5
Henry solubility constant Hcp at 296 K [3, 11]: 4.9

Henry solubility constant Hcp ([1]; reference: Li et al. (2008)): 0.0017
Henry solubility constant Hcp at 310 K [2, 12]: 0.00062
Henry solubility constant Hcp at 293 K ([4]; reference: Yurteri et al. (1987)): 0.0021
Structure (SMILES): Cc1ccc(C)c(C)c1 [1,2,4-trimethylbenzene]

Henry solubility constant Hcp at 296 K ([3]; reference: Miller and Stuart (2000)): 0.0064
Structure (SMILES): CCCCOCC [1-ethoxy-butane]

Henry solubility constant Hcp ([1]; reference: Ashton et al. (1968)): 2.4e-06
Henry solubility constant Hcp ([1]; reference: Bullister et al. (2002)): 2.3e-06
Henry solubility constant Hcp ([1]; reference: Cosgrove and Walkley (1981)): 2.5e-06
Henry solubility constant Hcp ([1]; reference: Friedman (1954)): 2.2e-06
Henry solubility constant Hcp ([1]; reference: Park et al. (1982)): 2.4e-06
Henry solubility constant Hcp at 310 K ([2]; reference: Longo et al. (1970)): 1.7e-06
Henry solubility constant Hcp at 310 K [2, 7]: 1.7e-06
Structure (SMILES): FS(F)(F)(F)(F)F [sulfur hexafluoride]

Structure (SMILES): CCCCOC(=O)c1ccccc1C(=O)OCCCC [dibutyl phthalate]
Henry solubility constant Hcp at 296 K ([3]; reference: Atlas et al. (1983)): 5.5

Henry solubility constant Hcp at 310 K ([2]; reference: Johanson and Dynésius (1988)): 4.8
Structure (SMILES): COCC(C)O (centres undefined) [1-methoxy-2-propanol]
